# Compound: CC1(COc2ccc3c(c2)ncn3-c2ccc3cccc(N4CCC(N)CC4)c3n2)COC1 [Crenolanib] + Cc1nc(NC(=O)N2CCC[C@H]2C(N)=O)sc1-c1ccnc(C(C)(C)C(F)(F)F)c1 [Alpelisib] (partner 2 µM)
# Assay: relative viability (nuclei count vs DMSO), 5 days (fraction); higher = more cells survive
# Conditions: first compound 1 µM
# Summary of the method: (§1)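 Cells from lung cancer lines were seeded into 1536-well plates and, one day later, dosed by pin tool. Treatments were either a single drug or a fixed dose of an anchor drug with five library-drug doses (not always all listed) in √10 steps. After 5 days, nuclei were stained in a one-step fixation (final 0.05% Triton X-100, 1% formaldehyde, 1 ug/ml Hoechst) and counted on 4× images, and relative viability is the treated-to-vehicle nuclei ratio, as the median of duplicate plates.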
row,Cell Line,relative viability
1,NCI-H520,0.848
2,NCI-H2405,0.691
3,SW 1573,0.608
4,NCI-H1395,0.938
5,201T,1.05
6,NCI-H1975,0.61
7,HOP-62,0.941
8,NCI-H2347,1.14
9,NCI-H1355,0.748
10,NCI-H650,1.07
11,CAL-12T,1.2
12,NCI-H1666,1.02
13,H3255,0.767
14,NCI-H23,0.741
15,NCI-H1915,0.874
16,NCI-H1437,0.949
17,NCI-H322M,0.841
18,NCI-H1792,0.666
19,NCI-H2085,1.05
20,NCI-H1793,0.717
21,PC-3 [JPC-3],1.04
22,EKVX,0.99
23,LCLC-103H,0.942
24,NCI-H1944,0.819
25,NCI-H1993,0.709
26,SK-LU-1,0.87
27,NCI-H358,0.605
28,NCI-H661,0.542
29,RERF-LC-KJ,0.73

# Compound: O=C1NC(=O)[C@@H](c2cn3c4c(cccc24)CCC3)[C@@H]1c1c[nH]c2ccccc12 [Tivantinib] + CC(=O)Nc1cccc(-n2c(=O)n(C3CC3)c(=O)c3c(Nc4ccc(I)cc4F)n(C)c(=O)c(C)c32)c1 [Trametinib] (partner 0.02 µM)
# Assay: as above
# Conditions: first compound 0.01 µM
# Summary of the method: as §1
row,Cell Line,relative viability
1,NCI-H2023,0.593
2,A-427,0.795
3,NCI-H460,0.172
4,NCI-H727,0.413
5,NCI-H1755,0.78
6,NCI-H520,0.798
7,NCI-H2405,0.771
8,SW 1573,0.682
9,NCI-H1395,0.987
10,201T,0.694
11,NCI-H1975,0.323
12,HOP-62,0.458
13,NCI-H2347,0.246
14,NCI-H1355,0.476
15,NCI-H650,0.936
16,CAL-12T,0.451
17,NCI-H1666,0.815

row,Cell Line,relative viability
1,NCI-H23,0.509
2,NCI-H1915,0.287
3,NCI-H1437,0.637
4,NCI-H322M,0.486
5,NCI-H1792,0.421
6,NCI-H2085,0.62
7,NCI-H1793,0.506
8,PC-3 [JPC-3],0.731
9,EKVX,0.408
10,LCLC-103H,0.6
11,NCI-H1944,0.449
12,NCI-H1993,0.545
13,SK-LU-1,0.514
14,NCI-H358,0.127
15,NCI-H661,0.602
16,RERF-LC-KJ,0.875

# Same assay, conditions: first compound 0.03162 µM
row,Cell Line,relative viability
1,NCI-H2023,0.551
2,A-427,0.786
3,NCI-H460,0.114
4,NCI-H727,0.343
5,NCI-H1755,0.748
6,NCI-H520,0.723
7,NCI-H2405,0.63
8,SW 1573,0.488
9,NCI-H1395,1.11
10,201T,0.713
11,NCI-H1975,0.338
12,HOP-62,0.346
13,NCI-H2347,0.316
14,NCI-H1355,0.412
15,NCI-H650,0.787
16,CAL-12T,0.269
17,NCI-H1666,0.786

row,Cell Line,relative viability
1,H3255,0.5
2,NCI-H23,0.352
3,NCI-H1915,0.294
4,NCI-H1437,0.464
5,NCI-H322M,0.471
6,NCI-H2085,0.484
7,NCI-H1793,0.408
8,PC-3 [JPC-3],0.726
9,EKVX,0.437
10,LCLC-103H,0.736
11,NCI-H1944,0.406
12,NCI-H1993,0.462
13,SK-LU-1,0.549
14,NCI-H358,0.124
15,NCI-H661,0.561
16,RERF-LC-KJ,0.845

# Same assay, conditions: first compound 0.1 µM
row,Cell Line,relative viability
1,NCI-H2023,0.433
2,A-427,0.737
3,NCI-H460,0.286
4,NCI-H727,0.398
5,NCI-H1755,0.666
6,NCI-H520,0.576
7,NCI-H2405,0.615
8,SW 1573,0.561
9,NCI-H1395,1.02
10,201T,0.729
11,NCI-H1975,0.33
12,HOP-62,0.356
13,NCI-H2347,0.231
14,NCI-H1355,0.469
15,NCI-H650,0.899
16,CAL-12T,0.359
17,NCI-H1666,0.827

row,Cell Line,relative viability
1,H3255,0.642
2,NCI-H23,0.37
3,NCI-H1915,0.282
4,NCI-H1437,0.441
5,NCI-H322M,0.449
6,NCI-H1792,0.394
7,NCI-H2085,0.544
8,NCI-H1793,0.404
9,PC-3 [JPC-3],0.693
10,EKVX,0.325
11,LCLC-103H,0.69
12,NCI-H1944,0.444
13,NCI-H1993,0.565
14,SK-LU-1,0.484
15,NCI-H358,0.147
16,NCI-H661,0.536
17,RERF-LC-KJ,0.855

# Same assay, conditions: first compound 0.3162 µM
row,Cell Line,relative viability
1,NCI-H2023,0.414
2,A-427,0.673
3,NCI-H460,0.169
4,NCI-H1755,0.771
5,NCI-H520,0.701
6,NCI-H2405,0.597
7,SW 1573,0.452
8,NCI-H1395,0.83
9,201T,0.69
10,NCI-H1975,0.298
11,HOP-62,0.37
12,NCI-H2347,0.248

# — the supplement of paper PMC10307832
